In ChEMBL document CHEMBL1142886, “Substrate specificity analysis and inhibitor design of homoisocitrate dehydrogenase” (Bioorg Med Chem, 2007) one finds Ki data, which are given here for five compounds.

Assay [1] is described as follows: Inhibition of Deinococcus radiodurans homoisocitrate dehydrogenase.
Assay [2] deals with Homoisocitrate dehydrogenase, mitochondrial (Saccharomyces cerevisiae S288c, UniProt P40495). Kind of assay: Inhibition of Saccharomyces cerevisiae homoisocitrate dehydrogenase expressed in Escherichia coli Rosetta cells above 10 mM.

Each structure is given as a SMILES string.

Homoisocitrate dehydrogenase, mitochondrial, sequence (P40495 whole entry): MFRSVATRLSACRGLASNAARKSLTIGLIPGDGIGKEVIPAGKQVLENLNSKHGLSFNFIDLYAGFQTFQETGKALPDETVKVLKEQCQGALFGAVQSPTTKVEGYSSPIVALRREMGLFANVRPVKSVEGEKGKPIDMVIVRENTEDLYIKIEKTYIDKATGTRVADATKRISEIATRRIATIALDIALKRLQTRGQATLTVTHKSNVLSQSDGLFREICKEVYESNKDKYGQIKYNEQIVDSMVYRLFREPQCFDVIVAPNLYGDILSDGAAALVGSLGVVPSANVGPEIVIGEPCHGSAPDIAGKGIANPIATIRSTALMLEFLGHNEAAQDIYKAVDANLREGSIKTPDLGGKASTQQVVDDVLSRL

For orientation: Ki means the equilibrium dissociation constant of an inhibitor or competing ligand from its target. A high value points to weaker binding. `C=C[C@H](C(=O)O)[C@@H](O)C(=O)O` returned a Ki in assay [1] of 88 µM. As for `O=C(O)/C(=C/CCO)[C@@H](O)C(=O)O`, the Ki was found to be 5200 µM in assay [1] and 1400 µM in assay [2]. For `O=C(O)/C(=C\CCO)[C@@H](O)C(=O)O`, in that order: 15300 µM and 510 µM. The corresponding values for `O=C(O)CC/C=C(\C(=O)O)[C@@H](O)C(=O)O` are 260 µM and 72 µM. Regarding `O=C(O)CC/C=C(/C(=O)O)[C@@H](O)C(=O)O`, the results for the Ki in assay [1] and in assay [2] were 3100 µM and 790 µM, respectively.
